In the supplement of paper PMC10627819:

Columns and labels:
[1] = test system: S. pneumoniae D39V; assay: fitness (endpoint OD595 vs no drug) (fraction); higher = more growth
Procedure, shortened: (§1)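 Fitness compares growth at the stationary-phase transition with the robust mean of no-drug control wells, as a ratio of optical densities. The ratio is capped at 1. Wells of 384-well plates held 30 µl, or 55 µl for S. pneumoniae, inoculated at OD595 0.01. Readings at OD595 every 30 min for 14 h at 37 °C were corrected against the first reading.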

[2] = test system: B. subtilis 168; assay: as above
Procedure, shortened: as §1

[3] = test system: S. aureus Newman; assay: as above
Procedure, shortened: as §1

[4] = test system: S. pneumoniae D39V; assay: Bliss interaction score (quartile over a dose matrix) (fitness difference); higher = more antagonism (negative = synergy)
Procedure, shortened: (§2)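 Fitness was OD595 at entry into stationary phase divided by the plate's robust no-drug mean and capped at 1; single-drug fitness was inferred from combination data. The Bliss score is observed minus expected (product) fitness, summarised by quartiles over technical, biological and donor/recipient replicates.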

[5] = test system: S. aureus DSM 20231; assay: as above
Procedure, shortened: as §2

[6] = test system: B. subtilis 168; assay: as above
Procedure, shortened: as §2

[7] = test system: S. aureus Newman; assay: as above
Procedure, shortened: as §2
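Wherever Bliss interaction score (quartile over a dose matrix) is given: first quartile when negative (synergy) and third quartile when positive (antagonism).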

Cc1ncc([N+](=O)[O-])n1CCO [Metronidazole] + CN(C)c1cc(NC(=O)CNC(C)(C)C)c(O)c2c1C[C@H]1C[C@H]3[C@H](N(C)C)C(O)=C(C(N)=O)C(=O)[C@@]3(O)C(O)=C1C2=O [Tigecycline]
fitness
Conditions	first compound 0.625 µg/mL	first compound 1.073 µg/mL	first compound 1.25 µg/mL	first compound 2.145 µg/mL	first compound 2.5 µg/mL	first compound 4.29 µg/mL	first compound 5 µg/mL
[1], partner 0.65 µg/mL	–	0.931	0.965	0.925	0.968	0.935	0.964
[1], partner 1.3 µg/mL	–	0.931	0.94	0.938	0.943	0.949	0.952
[1], partner 2.6 µg/mL	–	0.921	0.957	0.911	0.964	0.943	0.952
[2], partner 0.039 µg/mL	0.963	–	0.977	–	≥ 1	–	–
[2], partner 0.078 µg/mL	0.942	–	0.94	–	0.976	–	–
[2], partner 0.156 µg/mL	0.944	–	0.963	–	0.938	–	–
[3], partner 0.039 µg/mL	0.987	–	≥ 1	–	0.995	–	–
[3], partner 0.078 µg/mL	≥ 1	–	0.981	–	≥ 1	–	–
[3], partner 0.156 µg/mL	0.966	–	0.977	–	≥ 1	–	–

fitness, one replicate
Conditions	first compound 0.625 µg/mL	first compound 0.781 µg/mL	first compound 1.25 µg/mL	first compound 1.562 µg/mL	first compound 2.5 µg/mL	first compound 3.124 µg/mL
[2], partner 0.125 µg/mL	≥ 1	–	≥ 1	–	≥ 1	–
[2], partner 0.25 µg/mL	0.963	–	0.942	–	0.967	–
[2], partner 0.5 µg/mL	0.917	–	0.927	–	0.968	–
[3], partner 0.039 µg/mL	–	≥ 1	–	0.971	–	0.932
[3], partner 0.078 µg/mL	–	≥ 1	–	≥ 1	–	≥ 1
[3], partner 0.156 µg/mL	–	≥ 1	–	≥ 1	–	0.959

Conditions	Bliss interaction score
[4]	0.0439
[5]	0.0589
[6]	-0.0624
[7]	0.0458

COc1cccc2c1C(=O)c1c(O)c3c(c(O)c1C2=O)C[C@@](O)(C(=O)CO)C[C@@H]3O[C@H]1C[C@H](N)[C@H](O)[C@H](C)O1 [Doxorubicin] + CN[C@@H]1[C@H](O[C@H]2[C@H](O[C@H]3[C@H](O)[C@@H](O)[C@H](N=C(N)N)[C@@H](O)[C@@H]3N=C(N)N)O[C@@H](C)[C@]2(O)C=O)O[C@@H](CO)[C@H](O)[C@H]1O [Streptomycin]
fitness
Conditions	partner 1 µg/mL	partner 2 µg/mL	partner 4 µg/mL	partner 8 µg/mL
[1], first compound 0.25 µg/mL	–	0.898	0.918	0.892
[1], first compound 0.5 µg/mL	–	0.935	0.907	0.901
[1], first compound 1 µg/mL	–	0.874	0.875	0.858
[2], first compound 0.625 µg/mL	–	0.869	–	0.0284
[2], first compound 1.25 µg/mL	–	–	–	0.0203
[2], first compound 2.5 µg/mL	–	0.0556	0.0219	0.0198
[3], first compound 0.625 µg/mL	0.791	0.788	–	–
[3], first compound 1.25 µg/mL	0.769	0.746	–	–
[3], first compound 2.5 µg/mL	0.75	0.742	–	–

[1], partner 16 µg/mL, one replicate
Conditions	fitness
first compound 0.25 µg/mL	0.817
first compound 0.5 µg/mL	0.761
first compound 1 µg/mL	0.558

Conditions	Bliss interaction score
[4]	0.0825
[5]	-0.0832
[6]	-0.355
[7]	-0.043

C[C@@H]1O[C@@H]1P(=O)(O)O [Fosfomycin] + CN[C@@H]1[C@H](O[C@H]2[C@H](O[C@H]3[C@H](O)[C@@H](O)[C@H](N=C(N)N)[C@@H](O)[C@@H]3N=C(N)N)O[C@@H](C)[C@]2(O)C=O)O[C@@H](CO)[C@H](O)[C@H]1O [Streptomycin]
fitness
Conditions	partner 1 µg/mL	partner 2 µg/mL	partner 4 µg/mL	partner 8 µg/mL
[1], first compound 1.25 µg/mL	–	0.919	0.921	0.902
[1], first compound 2.5 µg/mL	–	0.903	0.9	0.918
[1], first compound 5 µg/mL	–	0.715	0.747	0.722
[2], first compound 1.562 µg/mL	–	0.664	–	–
[2], first compound 3.124 µg/mL	–	0.399	–	–
[3], first compound 0.781 µg/mL	0.599	0.565	–	–
[3], first compound 1.562 µg/mL	0.517	0.467	–	–
[3], first compound 3.124 µg/mL	0.156	0.131	0.0427	–

[1], partner 16 µg/mL, one replicate
Conditions	fitness
first compound 1.25 µg/mL	0.765
first compound 2.5 µg/mL	0.714
first compound 5 µg/mL	0.436

Conditions	Bliss interaction score
[4]	-0.0437
[5]	-0.14
[6]	-0.187
[7]	-0.106

O=C(O)c1cn(C2CC2)c2cc(N3CCNCC3)c(F)cc2c1=O [Ciprofloxacin] + CN1C2=CC=CC=C2N=C3C1=CC=CC3=O [Pyocyanin]
Conditions	fitness
[1], first compound 0.125 µg/mL, partner 0.325 µg/mL	0.989
[1], first compound 0.125 µg/mL, partner 0.65 µg/mL	0.966
[1], first compound 0.125 µg/mL, partner 1.3 µg/mL	0.755
[1], first compound 0.25 µg/mL, partner 0.325 µg/mL	0.924
[1], first compound 0.25 µg/mL, partner 0.65 µg/mL	0.92
[2], first compound 0.0098 µg/mL, partner 1.25 µg/mL	0.911
[2], first compound 0.0098 µg/mL, partner 2.5 µg/mL	0.809
[2], first compound 0.0098 µg/mL, partner 5 µg/mL	0.814
[2], first compound 0.0195 µg/mL, partner 2.5 µg/mL	0.703
[2], first compound 0.0195 µg/mL, partner 5 µg/mL	0.649
[3], first compound 0.0375 µg/mL, partner 1.25 µg/mL	0.601
[3], first compound 0.0375 µg/mL, partner 2.5 µg/mL	0.574
[3], first compound 0.0375 µg/mL, partner 5 µg/mL	0.38
[3], first compound 0.075 µg/mL, partner 1.25 µg/mL	0.578
[3], first compound 0.075 µg/mL, partner 2.5 µg/mL	0.533
[3], first compound 0.075 µg/mL, partner 5 µg/mL	0.26
[3], first compound 0.15 µg/mL, partner 1.25 µg/mL	0.0395
[3], first compound 0.15 µg/mL, partner 2.5 µg/mL	0.0384
[3], first compound 0.15 µg/mL, partner 5 µg/mL	0.0694

Conditions	fitness
[1], first compound 0.25 µg/mL, partner 1.3 µg/mL, one replicate	0.54

Conditions	Bliss interaction score
[4]	0.0709
[5]	0.0671
[6]	0.104
[7]	-0.0511
